# Laboratory results as given in paper PMC7083851, “Extended pharmacodynamic responses observed upon PROTAC-mediated degradation of RIPK2” (Communications Biology, 2020).
# “And” between values parts separate entries of the source, which are not always exact repeats. Equal values may be shown once.
# Assays:
# [1] = Microsomal CLint, rat; type: in vitro ADME; details: rat microsomes
# Experimental: (§1) Metabolic stability was performed at Cyprotex (UK). Pooled liver microsomes / cryopreserved pooled hepatocytes were purchased from a commercial supplier (BD Biosciences or Corning/InVitro Technologies).
# (§2) The final incubation volume was 500 μL. A minus cofactor control incubation was included for each compound tested where 0.05 M phosphate buffer pH 7.4 was added instead of NADPH (minus NADPH). Each compound was incubated for 0, 5, 15, 30, and 45 min. The control (minus NADPH) was incubated for 45 min only.
# (§3) All incubations were terminated by transferring 50 μL of incubate to 100 μL of acetonitrile containing internal standard at the appropriate time points. The termination plates were centrifuged at 2500 rpm for 20–30min at 4 °C to precipitate the protein. Following protein precipitation, samples were analysed using quantitative LC-MS/MS. A plot of ln peak area ratio (compound peak area/internal standard peak area) against time, yielded the gradient of the line.
# (§4) Calculated intrinsic clearance values of control compounds were compared with the Cyprotex data library to confirm the appropriate activity of the microsomal/hepatocyte batch and data acceptance.
# [2] = target: T1, RIPK2 (Homo sapiens, UniProt O43353); assay: RIPK2 degradation in THP-1 cells, capillary-based immunoassay, 18 h; type: cell-based; parameters: endogenous in cells; host or cells: THP-1 (ATCC TIB-202); details: for RIPK2 level relative to DMSO control, mean / RIPK2 level relative to DMSO control, replicate: THP-1, 18 h
# T1 sequence (O43353 whole entry): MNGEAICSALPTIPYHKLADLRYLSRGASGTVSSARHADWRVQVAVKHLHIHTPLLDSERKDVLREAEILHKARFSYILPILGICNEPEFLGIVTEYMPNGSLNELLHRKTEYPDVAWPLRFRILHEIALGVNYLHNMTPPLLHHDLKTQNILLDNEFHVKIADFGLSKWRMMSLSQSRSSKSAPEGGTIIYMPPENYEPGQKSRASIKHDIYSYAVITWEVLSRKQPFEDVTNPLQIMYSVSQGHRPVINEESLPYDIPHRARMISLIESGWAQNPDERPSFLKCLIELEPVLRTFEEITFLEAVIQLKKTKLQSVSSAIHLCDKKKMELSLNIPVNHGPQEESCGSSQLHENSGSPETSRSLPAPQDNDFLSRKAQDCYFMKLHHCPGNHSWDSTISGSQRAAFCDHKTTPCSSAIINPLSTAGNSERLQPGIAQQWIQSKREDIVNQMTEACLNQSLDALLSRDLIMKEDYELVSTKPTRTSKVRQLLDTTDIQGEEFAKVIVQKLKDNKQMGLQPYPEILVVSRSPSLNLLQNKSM
# Experimental: The compounds were incubated with THP-1 cells for 18 h after which RIPK2 levels were determined using a capillary-based immunoassay (n = 3). All three PROTACs potently degraded RIPK2 in a concentration dependent manner (Fig. 1). […]. This discrepancy between the in vitro RIPK2 degradation and binding potency provides possible evidence for a catalytic mechanism of action of this compound.
# (§5) Before treatment with compound or vehicle, THP1 cells, human and rat PBMCs were counted using Vi-Cell cell counter (Invitrogen) and adjusted to a final cell density of […] using complete growth medium. Cells or whole blood were treated with vehicle (0.1% DMSO) or fixed concentrations of compound up to 1 μM in half log unit increments and incubated for the time period indicated in the figure.
# Simple Western immunoassay: Cell lysates were mixed with 5× concentrated master mix (Protein Simple) and denatured at 95 °C on a heat block for 5 min together with the provided ladder (Protein Simple). Antibodies were diluted in the provided buffer as following: anti-RIPK2 (1:10 or 1:50), anti-cIAP1(1:10), anti-cIAP2 (1:10), anti-XIAP (1:10), mouse anti-β-actin (Abcam - 1:1000), rabbit anti-β-actin (Abcam - 1:50) and anti-vinculin (1:100). All reagents (blocking buffer, primary and secondary antibodies, streptavadin, luminol/peroxide, separation matrix, stacking matrix and water) were added to the Protein Simple plate containing the ladder and lysates and the plate was placed in a Protein Simple Western instrument and the Simple Western default size assay protocol was used. All samples were analyzed using the associated Compass software 3.1.7. The area under the peak values obtained for RIPK2, cIAP1, cIAP2 or XIAP were normalized relative to the control protein values.
# In vitro experimental data were analyzed using a 4-parameter logistic equation in GraphPad Prism 5.0.4. to generate an estimate of the half-maximal concentration and maximal degradation, DC50 and Dmax value respectively, for concentration-degradation relationships. Cytokine levels were analyzed in a similar manner to yield IC50 and Imax values. […] Where analysis to a sigmoidal relationship was not possible, the data points are shown as mean ± s.e.m.
# [3] = test system: MDP-induced TNFα release; assay: MDP-induced TNFα release in human whole blood; type: cell-based; details: inhibition of MDP-induced TNFα release
# Experimental: as §5
# Where the assessment of cytokines was performed, L18-MDP was added to the cell culture media (1 μg/ml) or to the rat blood samples (100 ng/ml) and samples were incubated for up to 4 h. […]
# Cytokine measurement assay: Cytokine levels were measured in rat plasma or rat PBMCs cell culture supernatants using rat V-Plex TNFα, in human plasma or human PBMCs cell culture supernatants with either TNFα tissue culture or 7-plex kit. Rat serum and tissues samples from the in vivo L18-MDP acute inflammation model were analyzed using the rat TNFα, Il-6 and IL-8 U-Plex kits. […] Levels of cytokines spontaneously released from human colon biopsies cell culture supernatants were measured using Human IL-1 beta/IL-1F2 DuoSet ELISA (Bio-techne), Human IL-6 ELISA (Immunotools) and Human TNF-alpha DuoSet ELISA (Bio-techne). […] The MSD plates were analyzed using the MSD sector imager 6000 plate reader and cytokines concentration (pg/ml) was obtained by using the MSD DISCOVERY WORKBENCH software version 4.0.12.1 […]
# [4] = target: T1, RIPK2; assay: RIPK2 fluorescence polarisation binding assay
# [5] = Microsomal CLint, human; type: in vitro ADME; details: human microsomes
# Experimental: as §1, §2, §3, §4
# [6] = ChromLogD7.4 high-throughput chromatographic lipophilicity; type: physicochemical
# [7] = High-throughput precipitation solubility, chemiluminescent nitrogen-specific detection (CLND); type: physicochemical; details: high-throughput precipitation assay
compound,measurement,setting,value
CN[C@@H](C)C(=O)N[C@H](C(=O)N1Cc2cc(OCCOCCOCCOCCOc3cc4nccc(Nc5ccc6scnc6c5)c4cc3S(=O)(=O)C(C)(C)C)ccc2C[C@H]1C(=O)N[C@@H]1CCCc2ccccc21)C(C)(C)C [PROTAC 2],microsomal turnover,[1],11 mL/min/g liver
same,"RIPK2 level relative to DMSO control, mean",[2]; concentration 5.64503e-11 (uM),117.46%
same,"RIPK2 level relative to DMSO control, replicate",[2]; concentration 5.64503e-11 (uM),117.27% and 131.32% and 103.77%
same,"RIPK2 level relative to DMSO control, mean",[2]; concentration 1.69351e-10 (uM),97.22%
same,"RIPK2 level relative to DMSO control, replicate",[2]; concentration 1.69351e-10 (uM),71.86% and 108.98% and 110.82%
same,"RIPK2 level relative to DMSO control, mean",[2]; concentration 5.08053e-10 (uM),57.20%
same,"RIPK2 level relative to DMSO control, replicate",[2]; concentration 5.08053e-10 (uM),41.71% and 72.70% and 57.18%
same,"RIPK2 level relative to DMSO control, mean",[2]; concentration 1.52416e-9 (uM),26.83%
same,"RIPK2 level relative to DMSO control, replicate",[2]; concentration 1.52416e-9 (uM),18.29% and 36.88% and 25.33%
same,"RIPK2 level relative to DMSO control, mean",[2]; concentration 4.57247e-9 (uM),15.28%
same,"RIPK2 level relative to DMSO control, replicate",[2]; concentration 4.57247e-9 (uM),12.82% and 16.44% and 16.58%
same,"RIPK2 level relative to DMSO control, mean",[2]; concentration 1.37174e-8 (uM),8.47%
same,"RIPK2 level relative to DMSO control, replicate",[2]; concentration 1.37174e-8 (uM),4.51% and 15.08% and 5.82%
same,"RIPK2 level relative to DMSO control, mean",[2]; concentration 4.11523e-8 (uM),4.73%
same,"RIPK2 level relative to DMSO control, replicate",[2]; concentration 4.11523e-8 (uM),6.91% and 6.83% and 0.44%
same,"RIPK2 level relative to DMSO control, mean",[2]; concentration 1.23457e-7 (uM),7.39%
same,"RIPK2 level relative to DMSO control, replicate",[2]; concentration 1.23457e-7 (uM),4.63% and 11.01% and 6.53%
same,"RIPK2 level relative to DMSO control, mean",[2]; concentration 3.7037e-7 (uM),9.35%
same,"RIPK2 level relative to DMSO control, replicate",[2]; concentration 3.7037e-7 (uM),5.28% and 16.09% and 6.68%
same,"RIPK2 level relative to DMSO control, mean",[2]; concentration 1.11111e-6 (uM),11.12%
same,"RIPK2 level relative to DMSO control, replicate",[2]; concentration 1.11111e-6 (uM),12.33% and 13.80% and 7.23%
same,"RIPK2 level relative to DMSO control, mean",[2]; concentration 3.33333e-6 (uM),14.86%
same,"RIPK2 level relative to DMSO control, replicate",[2]; concentration 3.33333e-6 (uM),10.80% and 18.84% and 14.95%
same,"RIPK2 level relative to DMSO control, mean",[2]; concentration 1e-5 (uM),10.81%
same,"RIPK2 level relative to DMSO control, replicate",[2]; concentration 1e-5 (uM),10.44% and 15.52% and 6.46%
same,pDC50 (log half-maximal degradation concentration) of RIPK2,"[2]; THP-1 cells, 18 h, n = 3",9.4 ± 0.1
same,hWB MDP pIC50 ± SEM (n),[3],7.95 ± 0
same,IC50,[4],10 nM
same,microsomal turnover,[5],29 mL/min/g liver
same,ChromLogD7.4,[6],6.1
same,"CLND solubility, in words",[7],poor solubility
